From patent US20080125467A1, “Amino-Containing Compounds Which Inhibit Memapsin 2 Beta-Secretase Activity and Methods of Use Thereof” (priority 2004, published 2008)

Target: T1, memapsin 2 (Cricetulus griseus, UniProt G3IAK4)
T1 construct: endogenous in cells; host or cells: Chinese hamster ovary cells over-expressing human APP695 (London + Swedish)
Test: Cellular Aβ IC50 determination (Aβ40 sandwich ELISA)
Type: cell-based
Conditions: Chinese hamster ovary cells over-expressing human APP695 with London and Swedish mutations, 24 h
Protocol: The potency of compounds against memapsin 2 activity was determined in a cellular assay of Aβ production. […] Chinese hamster ovary cells that over-express human APP695 with the London and Swedish mutations were seeded in multi-well plates at 10% confluency. Compounds were dissolved in DMSO to concentrations near 1 mM, and diluted into culture media to a final concentration near 4 μM (final 0.4% DMSO). Compounds were diluted serially and applied to cells in multi-well plates 48 h after seeding. Incubation was continued in 5% CO2 at 37 degrees C. for 24 h. Aliquots were removed and assayed for Aβ40 content using a sandwich ELISA (BioSource International). Amount of Aβ40 over the range of concentration of compounds, relative to control incubations, were fit to a 4-parameter IC50 model.

T1 sequence (G3IAK4 22-501): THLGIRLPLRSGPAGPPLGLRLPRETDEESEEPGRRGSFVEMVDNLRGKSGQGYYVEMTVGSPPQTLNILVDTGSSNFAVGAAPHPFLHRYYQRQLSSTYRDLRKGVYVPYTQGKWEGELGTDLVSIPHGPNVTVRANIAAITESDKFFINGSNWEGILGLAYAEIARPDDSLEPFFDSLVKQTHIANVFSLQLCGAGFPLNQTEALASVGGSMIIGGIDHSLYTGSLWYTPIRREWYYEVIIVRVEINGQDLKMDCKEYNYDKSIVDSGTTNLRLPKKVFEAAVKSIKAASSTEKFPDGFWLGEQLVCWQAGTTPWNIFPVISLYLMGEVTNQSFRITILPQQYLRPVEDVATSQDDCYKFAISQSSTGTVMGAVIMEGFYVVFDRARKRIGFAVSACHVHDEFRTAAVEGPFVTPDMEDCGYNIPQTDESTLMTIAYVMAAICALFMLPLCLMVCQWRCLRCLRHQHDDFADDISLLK

Structure (SMILES) | IC50
Cc1csc(COC(=O)N[C@@H](CNC(=O)O[C@H]2CCOC2)C(=O)N[C@@H](CC(C)C)[C@@H](O)C[C@@H](C)C(=O)N[C@H](C(=O)NCC(C)C)C(C)C)n1 | 6 to 100 µM
Cc1csc(CC(C)C(=O)NC(CN(C)S(C)(=O)=O)C(=O)NC(CC(C)C)C(O)CC(C)C(=O)NC(C(=O)NCC(C)C)C(C)C)n1 (centres unmarked) [4-hydroxy-N-(1-(isobutylamino)-3-methyl-1-oxobutan-2-yl)-2,7-dimethyl-5-(2-(2-methyl-3-(4-methylthiazol-2-yl)propanamido)-3-(N-methylmethylsulfonamido)propanamido)octanamide] | 6 to 100 µM
Cc1cc(C)n(CC(N=[N+]=[N-])C(=O)NC(CNC(=O)OC(C)(C)C)C(=O)NC(CC(C)C)C(O)CC(C)C(=O)NC(C(=O)NCC(C)C)C(C)C)n1 (centres unmarked) [tert-butyl 2-(2-azido-3-(3,5-dimethyl-1H-pyrazol-1-yl)propanamido)-3-(5-hydroxy-8-(1-(isobutylamino)-3-methyl-1-oxobutan-2-ylamino)-2,7-dimethyl-8-oxooctan-4-ylamino)-3-oxopropylcarbamate] | 6 to 100 µM
CCC(Cn1nc(C)cc1C)C(=O)NC(CNC(=O)OCCF)C(=O)NC(CC(C)C)C(O)CC(C)C(=O)NC(C(=O)NCC(C)C)C(C)C (centres unmarked) [2-fluoroethyl 2-(2-((3,5-dimethyl-1H-pyrazol-1-yl)methyl)butanamido)-3-(5-hydroxy-8-(1-(isobutylamino)-3-methyl-1-oxobutan-2-ylamino)-2,7-dimethyl-8-oxooctan-4-ylamino)-3-oxopropylcarbamate] | 6 to 100 µM
Cc1csc(COC(=O)N[C@@H](CNS(C)(=O)=O)C(=O)N[C@@H](CC(C)C)[C@@H](O)C[C@@H](C)C(=O)N[C@H](C(=O)NCC(C)C)C(C)C)n1 | > 100 µM
Cc1cc(C)n(CC(C)C(=O)NC(CNC(=O)OC2CCOC2)C(=O)NC(CC(C)C)C(O)CC(C)C(=O)NC(C(=O)NCC(C)C)C(C)C)n1 (centres unmarked) [tetrahydrofuran-3-yl 2-(3-(3,5-dimethyl-1H-pyrazol-1-yl)-2-methylpropanamido)-3-(5-hydroxy-8-(1-(isobutylamino)-3-methyl-1-oxobutan-2-ylamino)-2,7-dimethyl-8-oxooctan-4-ylamino)-3-oxopropylcarbamate] | 6 to 100 µM
COC(Cn1nc(C)cc1C)C(=O)NC(CNC(=O)OC(C)(C)C)C(=O)NC(CC(C)C)C(O)CC(C)C(=O)NC(C(=O)NCC(C)C)C(C)C (centres unmarked) [tert-butyl 2-(3-(3,5-dimethyl-1H-pyrazol-1-yl)-2-methoxypropanamido)-3-(5-hydroxy-8-(1-(isobutylamino)-3-methyl-1-oxobutan-2-ylamino)-2,7-dimethyl-8-oxooctan-4-ylamino)-3-oxopropylcarbamate] | > 100 µM
Cc1csc(CC(C)C(=O)NC(CNC(=O)OC(C)(C)C)C(=O)NC(Cc2cc(F)cc(F)c2)C(O)CC(C)C(=O)NC(C(=O)NCC(C)C)C(C)C)n1 (centres unmarked) [tert-butyl 3-(1-(3,5-difluorophenyl)-3-hydroxy-6-(1-(isobutylamino)-3-methyl-1-oxobutan-2-ylamino)-5-methyl-6-oxohexan-2-ylamino)-2-(2-methyl-3-(4-methylthiazol-2-yl)propanamido)-3-oxopropylcarbamate] | 6 to 100 µM
CCC(Cn1nc(C)cc1C)C(=O)NC(CNC(=O)OC(C)(C)C)C(=O)NC(CC(C)C)C(O)CC(C)C(=O)NC(C(=O)NCc1ccccn1)C(C)C (centres unmarked) [tert-butyl 2-(2-((3,5-dimethyl-1H-pyrazol-1-yl)methyl)butanamido)-3-(5-hydroxy-2,7-dimethyl-8-(3-methyl-1-oxo-1-(pyridin-2-ylmethylamino)butan-2-ylamino)-8-oxooctan-4-ylamino)-3-oxopropylcarbamate] | 6 to 100 µM
Cc1cc(C)n(CC(N)C(=O)NC(CNC(=O)OC(C)(C)C)C(=O)NC(CC(C)C)C(O)CC(C)C(=O)NC(C(=O)NCC(C)C)C(C)C)n1 (centres unmarked) [tert-butyl 2-(2-amino-3-(3,5-dimethyl-1H-pyrazol-1-yl)propanamido)-3-(5-hydroxy-8-(1-(isobutylamino)-3-methyl-1-oxobutan-2-ylamino)-2,7-dimethyl-8-oxooctan-4-ylamino)-3-oxopropylcarbamate] | > 100 µM

Further lines, results first:

IC50 | Structure (SMILES)
< 6 µM | Cc1csc(CC(C)C(=O)NC(CNC(=O)OC2CCOC2)C(=O)NC(CC(C)C)C(O)CC(C)C(=O)NC(C(=O)NCC(C)C)C(C)C)n1 (centres unmarked) [tetrahydrofuran-3-yl 3-(5-hydroxy-8-(1-(isobutylamino)-3-methyl-1-oxobutan-2-ylamino)-2,7-dimethyl-8-oxooctan-4-ylamino)-2-(2-methyl-3-(4-methylthiazol-2-yl)propanamido)-3-oxopropylcarbamate]
6 to 100 µM | Cc1csc(CC(C)C(=O)NC(CNC(=O)OC(C)(C)C)C(=O)NC(Cc2ccccc2)C(O)CC(C)C(=O)NC(C(=O)NCC(C)C)C(C)C)n1 (centres unmarked) [tert-butyl 3-(3-hydroxy-6-(1-(isobutylamino)-3-methyl-1-oxobutan-2-ylamino)-5-methyl-6-oxo-1-phenylhexan-2-ylamino)-2-(2-methyl-3-(4-methylthiazol-2-yl)propanamido)-3-oxopropylcarbamate]
< 6 µM | Cc1csc(CC(C)C(=O)NC(CNC(=O)OC(C)(C)C)C(=O)NC(CC(C)C)C(O)CC(C)C(=O)NC(C(=O)NN(C)C)C(C)C)n1 (centres unmarked) [tert-butyl 3-(8-(1-(2,2-dimethylhydrazinyl)-3-methyl-1-oxobutan-2-ylamino)-5-hydroxy-2,7-dimethyl-8-oxooctan-4-ylamino)-2-(2-methyl-3-(4-methylthiazol-2-yl)propanamido)-3-oxopropylcarbamate]
< 6 µM | CCC(Cn1nc(C)cc1C)C(=O)NC(CNC(=O)OC(C)(C)C)C(=O)NC(CC(C)C)C(O)CC(C)C(=O)NC(C(=O)NCc1ccncc1)C(C)C (centres unmarked) [tert-butyl 2-(2-((3,5-dimethyl-1H-pyrazol-1-yl)methyl)butanamido)-3-(5-hydroxy-2,7-dimethyl-8-(3-methyl-1-oxo-1-(pyridin-4-ylmethylamino)butan-2-ylamino)-8-oxooctan-4-ylamino)-3-oxopropylcarbamate]
6 to 100 µM | CC(=O)NCC(NC(=O)C(C)Cc1nc(C)cs1)C(=O)NC(CC(C)C)C(O)CC(C)C(=O)NC(C(=O)NCC(C)C)C(C)C (centres unmarked) [5-(3-acetamido-2-(2-methyl-3-(4-methylthiazol-2-yl)propanamido)propanamido)-4-hydroxy-N-(1-(isobutylamino)-3-methyl-1-oxobutan-2-yl)-2,7-dimethyloctanamide]
< 6 µM | Cc1csc(CC(C)C(=O)NC(CNC(=O)OC(C)(C)C)C(=O)NC(CC(C)C)C(O)CC(C)C(=O)NC(C(=O)NCc2ccncc2)C(C)C)n1 (centres unmarked) [tert-butyl 3-(5-hydroxy-2,7-dimethyl-8-(3-methyl-1-oxo-1-(pyridin-4-ylmethylamino)butan-2-ylamino)-8-oxooctan-4-ylamino)-2-(2-methyl-3-(4-methylthiazol-2-yl)propanamido)-3-oxopropylcarbamate]
< 6 µM | COC(=O)NC[C@H](NC(=O)OCc1nc(C)cs1)C(=O)N[C@@H](CC(C)C)[C@@H](O)C[C@@H](C)C(=O)N[C@H](C(=O)NCC(C)C)C(C)C
< 6 µM | Cc1csc(CC(C)C(=O)NC(CNS(C)(=O)=O)C(=O)NC(CC(C)C)C(O)CC(C)C(=O)NC(C(=O)NCC(C)C)C(C)C)n1 (centres unmarked) [4-hydroxy-N-(1-(isobutylamino)-3-methyl-1-oxobutan-2-yl)propanamido)-3-(methylsulfonamido)propanamido)octanamide]
< 6 µM | Cc1nc(CC(C)C(=O)NC(CNC(=O)OC(C)(C)C)C(=O)NC(CC(C)C)C(O)CC(C)C(=O)NC(C(=O)NCC(C)C)C(C)C)c(C)o1 (centres unmarked) [tert-butyl 2-(3-(2,5-dimethyloxazol-4-yl)-2-methylpropanamido)-3-(5-hydroxy-8-(1-(isobutylamino)-3-methyl-1-oxobutan-2-ylamino)-2,7-dimethyl-8-oxooctan-4-ylamino)-3-oxopropylcarbamate]
< 6 µM | CCC(CC(O)C(CC(C)C)NC(=O)C(CNC(=O)OC(C)(C)C)NC(=O)C(C)Cc1nc(C)cs1)C(=O)NC(C(=O)NCC(C)C)C(C)C (centres unmarked) [tert-butyl 3-(5-hydroxy-7-(1-(isobutylamino)-3-methyl-1-oxobutan-2-ylcarbamoyl)-2-methylnonan-4-ylamino)-2-(2-methyl-3-(4-methylthiazol-2-yl)propanamido)-3-oxopropylcarbamate]
< 6 µM | CCC(Cc1nc(C)cs1)C(=O)NC(CNC(=O)OC(C)(C)C)C(=O)NC(CC(C)C)C(O)CC(C)C(=O)NC(C(=O)NCC(C)C)C(C)C (centres unmarked) [tert-butyl 3-(5-hydroxy-8-(1-(isobutylamino)-3-methyl-1-oxobutan-2-ylamino)-2,7-dimethyl-8-oxooctan-4-ylamino)-2-(2-((4-methylthiazol-2-yl)methyl)butanamido)-3-oxopropylcarbamate]
< 6 µM | Cc1csc(CC(C)C(=O)NC(CNC(=O)OC(C)(C)C)C(=O)NC(CC(C)C)C(O)CC(C)C(=O)NC(C(=O)NCC(C)C)C(C)C)n1 (centres unmarked) [tert-butyl 3-(5-hydroxy-8-(1-(isobutylamino)-3-methyl-1-oxobutan-2-ylamino)-2,7-dimethyl-8-oxooctan-4-ylamino)-2-(2-methyl-3-(4-methylthiazol-2-yl)propanamido)-3-oxopropylcarbamate]
< 6 µM | COCCOC(=O)NCC(NC(=O)C(C)Cc1nc(C)cs1)C(=O)NC(CC(C)C)C(O)CC(C)C(=O)NC(C(=O)NCC(C)C)C(C)C (centres unmarked) [2-methoxyethyl 3-(5-hydroxy-8-(1-(isobutylamino)-3-methyl-1-oxobutan-2-ylamino)-2,7-dimethyl-8-oxooctan-4-ylamino)-2-(2-methyl-3-(4-methylthiazol-2-yl)propanamido)-3-oxopropylcarbamate]
